Source: patent US20160115540A1, “PRODRUGS AND DRUGS” (Biogen MA Inc., priority 2013, published 2016)
Counter-ions that a name gives are not always drawn.

Test system: jejunum
Assay: Transcriptional profiling on Affymetrix GeneChips, single dose, naïve mice: jejunum
Format: in vivo, C57BL/6 mice
Procedure: Treated mice were sacrificed at 2, 7, or 12 hours. Tissues (liver, spleen, kidney, jejunum, cortex, hippocampus, striatum and whole blood) were collected and analyzed by transcriptional profiling on mouse Affymetrix GeneChips.
Tissues (liver, spleen, kidney, jejunum, cortex, hippocampus, striatum and whole blood) were collected and analyzed by transcriptional profiling on mouse Affymetrix GeneChips.
Animals were exposed to CO2 and whole blood collected via cardiac puncture. Two 100 μl aliquots of whole blood were collected in 1.5 mL microcentrifuge tubes and snap frozen in liquid nitrogen. Peripheral (liver, spleen, kidney and jejunum) and CNS brain (cerebellum, hippocampus, striatum and cortex) tissues were harvested and snap frozen in liquid nitrogen, with special care taken to collect tissues of similar size and from the same location. All samples were stored at −80° C. until RNA extraction was conducted.
For RNA preparation, frozen tissues were placed in 2 mL RNAse-free 96-well blocks with 1.5 mL QIAzol Lysis Reagent (QIAgen) and a 3.2 mm stainless steel bead (BioSpec Products, Bartlesville, Okla.). Tissues were disrupted for four cycles of 45 seconds in a Mini-Beadbeater (Biospec Products). RNA was extracted in chloroform and the aqueous phase was mixed with an equal volume of 70% ethanol. Extracted RNA was applied to RNeasy 96 plates and purified by the spin method according to the manufacturer's protocol (RNeasy 96 Universal Tissue Protocol, QIAgen, Hilden Germany).
Automated sample amplifications and biotin labelings were carried out using the NuGEN Ovation RNA Amplification system V2 (Cat #3100), Ovation WB reagent (Cat #1300) and Encore Biotin module (Cat #4200) (NuGEN Technologies, Inc, San Carlos, Calif.) according to manufacturer's recommendations using an Arrayplex automated liquid handler (Beckman Coulter, Indianapolis, Ind.). Two micrograms of biotin labeled sscDNA probe were hybridized to Affymetrix GeneChip Affymetrix HT_MG-430_PM plate arrays with modified conditions as described in Allaire et al. Washing and staining of the hybridized arrays were completed as described in the GeneChip Expression analysis technical manual for HT plate arrays using the Genechip® Array Station (Affymetrix, Santa Clara, Calif.) with modifications as described in Allaire et al. The processed GeneChip® plate arrays were scanned using GeneTitan scanner (Affymetrix, Santa Clara, Calif.).
Affymetrix scans were subject to quality control (QC) measures. These tests included a visual inspection of the distribution of raw signal intensities and an assessment of RNA degradation, relative log expression (RLE), and normalized unsealed standard error (NUSE). All sample scans that passed these QC metrics were included in the analysis.
All CEL files were subjected to GC-content-based Robust Multi-array Average (GCRMA) normalization (version 2.20.0) (Irizarry R A, et al. Nucleic Acids Res 2003; 31:e15; Li C, et al. Genome Biol 2001; 2:[…]0032). Expression levels were log (base 2) transformed.
All calculations and analyses were carried out using R (version 2.11.1) and Bioconductor computational tools (Gentleman R. Springer Science+Business Media 2005).

[1] = 100DMF-vs-Veh or 100MMF-vs-Veh, 12 h

## COC(=O)/C=C/C(=O)O [MMF, monomethyl fumarate]
[1]
  FC Abcc3 (1428988_PM_at): 2.10
  FC Acsm5 (1437662_PM_at): 1.95
  FC Akr1b8 (1448894_PM_at): 18.78
  FC Akr1c12 (1450455_PM_s_at): 1.76
  FC Akr1c19 (1455454_PM_at): 3.53
  FC Blvrb (1451386_PM_at): 1.54
  FC Cbr3 (1427912_PM_at): 32.24
  FC Ces1e (1419510_PM_at): 2.77
  FC Ces1f (1424266_PM_s_at): 6.54
  FC Ces1g (1449486_PM_at): 9.45
  FC G6pd2 (1422327_PM_s_at): 1.83
  FC Gpx2 (1449279_PM_at): 1.54
  FC Gsr (1421816_PM_at): 2.67
  FC Gss (1441931_PM_x_at): 1.55
  FC Gsta2 (1421040_PM_a_at): 6.66
  FC Gsta2 (1421041_PM_s_at): 2.09
  FC Gsta3 (1423436_PM_at): 10.80
  FC Gsta3 (1423437_PM_at): 7.97
  FC Gstm1 (1425627_PM_x_at): 4.61
  FC Gstm1 (1448330_PM_at): 4.27
  FC Gstm3 (1427473_PM_at): 2.14
  FC Gstm3 (1427474_PM_s_at): 1.58
  FC Gstm4 (1424835_PM_at): 5.43
  FC Gstm6 (1422072_PM_a_at): 2.19
  FC Nqo1 (1423627_PM_at): 2.34
  FC Pir (1429001_PM_at): 4.19
  FC Setd4 (1425239_PM_at): 1.60
  FC Setd4 (1460373_PM_a_at): 1.56
  FC Slc5a4b (1422757_PM_at): 2.16
  FC Ugt2b5 (1419622_PM_at): 5.00
  FC Ugt2b35 (1439624_PM_at): 2.45
  FC Ugt2b36 (1455595_PM_at): 3.03
100MMF-vs-Veh, 2 h
  FC 6-Sep (1424181_PM_at): 1.56
  FC 1443118_PM_at: 1.69
  FC 1444265_PM_at: 1.93
  FC 1445980_PM_at: 2.43
  FC 1446045_PM_at: 1.69
  FC 1447411_PM_at: 2.81
  FC 1459091_PM_at: 2.02
  FC 2010002N04Rik (1423306_PM_at): 1.57
  FC 9030409G11Rik (1434169_PM_at): 1.52
  FC 9130221J17Rik (1443159_PM_at): 2.36
  FC Acss2 (1446542_PM_at): 1.84
  FC Akr1b8 (1448894_PM_at): 8.24
  FC Akr1c19 (1455454_PM_at): 2.33
  FC Areg (1421134_PM_at): 2.71
  FC Blvrb (1451386_PM_at): 1.57
  FC Bmp2 (1423635_PM_at): −1.55
  FC Cbr1 (1460196_PM_at): 1.53
  FC Cbr3 (1427912_PM_at): 55.49
  FC Ces1f (1424266_PM_s_at): 2.71
  FC Ces1g (1449486_PM_at): 3.68
  FC Dnase2a (1430135_PM_at): 1.79
  FC Dppa5a (1416552_PM_at): 2.64
  FC Ereg (1419431_PM_at): 2.00
  FC Ero1l (1419030_PM_at): 1.90
  FC Esd (1441604_PM_at): 1.52
  FC Figf (1438953_PM_at): 1.63
  FC G6pd2 (1422327_PM_s_at): 1.74
  FC Gabarapl1 (1416418_PM_at): 1.52
  FC Gclc (1424296_PM_at): 3.99
  FC Gclc (1455959_PM_s_at): 3.06
  FC Gsr (1421816_PM_at): 2.19
  FC Gss (1441931_PM_x_at): 1.92
  FC Gss (1448273_PM_at): 1.69
  FC Gsta3 (1423436_PM_at): 3.23
  FC Gsta3 (1423437_PM_at): 3.64
  FC Gstm1 (1416416_PM_x_at): 2.38
  FC Gstm1 (1425627_PM_x_at): 2.70
  FC Gstm1 (1448330_PM_at): 2.47
  FC Gstm3 (1427473_PM_at): 2.51
  FC Gstm3 (1427474_PM_s_at): 1.57
  FC Hfe 1422645_PM_at: 1.73
  FC Htatip2 (1451814_PM_a_at): 1.53
  FC LOC100504040 (1457279_PM_at): 2.24
  FC Lpin2 (1452837_PM_at): 1.61
  FC Lrp8 (1440882_PM_at): 2.23
  FC Mafg (1434054_PM_at): 1.95
  FC Mafg (1448916_PM_at): 2.01
  FC Nqo1 (1423627_PM_at): 2.16
  FC Osgin1 (1424022_PM_at): 1.98
  FC Prr5l (1452834_PM_at): −1.64
  FC Prss8 (1418320_PM_at): 2.41
  FC Setd4 (1425239_PM_at): 2.11
  FC Setd4 (1435405_PM_at): 1.93
  FC Setd4 (1460373_PM_a_at): 1.87
